Experimental data from ChEMBL document CHEMBL4680185, “Discovery of novel cyclin-dependent kinase (CDK) and histone deacetylase (HDAC) dual inhibitors with potent in vitro and in vivo anticancer activity” (Eur J Med Chem, 2020).

How the values were obtained:
Test in all cases: cells
NCI-H460 [1] = format: functional; conditions: Homo sapiens, time 72 hrs, read-out: GI
NCI-H460 [2] = format: functional; conditions: Homo sapiens, time 72 hrs, read-out: GI; remark: listed apart in the source
HCT-116 [3] = format: functional; conditions: Homo sapiens, time 72 hrs, read-out: GI
HCT-116 [4] = format: functional; conditions: Homo sapiens, time 72 hrs, read-out: GI; remark: listed apart in the source
HeLa = format: functional, cell-based; conditions: Homo sapiens, 72 h
Description: Antiproliferative activity against human Hela cells assessed as inhibition of cell growth incubated for 72 hrs by CCK-8 assay

HCT-116 [5] = format: functional, cell-based; conditions: Homo sapiens, HCT-116, 72 h
Description: Antiproliferative activity against human HCT116 cells assessed as inhibition of cell growth incubated for 72 hrs by CCK-8 assay

A-375 = format: functional, cell-based; conditions: Homo sapiens, A-375, 72 h
Description: Antiproliferative activity against human A375 cells assessed as inhibition of cell growth incubated for 72 hrs by CCK-8 assay

NCI-H460 [6] = format: functional, cell-based; conditions: Homo sapiens, NCI-H460, 72 h
Description: Antiproliferative activity against human H460 cells assessed as inhibition of cell growth incubated for 72 hrs by CCK-8 assay

SMMC-7721 = format: functional, cell-based; conditions: Homo sapiens, SMMC-7721, 72 h
Description: Antiproliferative activity against human SMMC7721 cells assessed as inhibition of cell growth incubated for 72 hrs by CCK-8 assay

SMILES | inhibition of growth at 2 µM (NCI-H460 [1]) | inhibition of growth at 8 µM (NCI-H460 [2]) | inhibition of growth at 8 µM (HCT-116 [3]) | inhibition of growth at 2 µM (HCT-116 [4]) | IC50 (HeLa) | IC50 (HCT-116 [5]) | IC50 (A-375) | IC50 (NCI-H460 [6]) | IC50 (SMMC-7721)
O=C(CCCCCNC(=O)c1n[nH]cc1NC(=O)c1c(F)cccc1F)NO | 22.9% | 28.8% | 59.4% | 4.87% | – | – | – | – | –
O=C(CCCCNC(=O)c1n[nH]cc1NC(=O)c1c(F)cccc1F)NO | 0.4% | 15.8% | 14.9% | 5.76% | – | – | – | – | –
Nc1ccccc1NC(=O)c1ccc(CNC(=O)c2n[nH]cc2NC(=O)c2c(F)cccc2F)cc1 | 13.9% | 80.5% | 79.1% | 73.1% | 4.48 µM | 1.13 µM | 1.7 µM | 7.79 µM | 15.2 µM
O=C(NO)c1ccc(CNC(=O)c2n[nH]cc2NC(=O)c2ccccc2F)cc1 | 23.5% | 57.1% | 77% | 51% | 6.61 µM | 2.2 µM | 3.01 µM | 23.7 µM | 16.7 µM
O=C(NO)c1ccc(CNC(=O)c2n[nH]cc2NC(=O)c2c(F)cccc2F)cc1 | 0.46% | 7.33% | 64.5% | 25% | – | – | – | – | –
O=C(Cc1ccc(NC(=O)c2n[nH]cc2NC(=O)c2ccccc2F)cc1)NO | 9.5% | 21.4% | 14.3% | 1.04% | – | – | – | – | –
O=C(NO)c1ccc(CNC(=O)c2n[nH]cc2NC(=O)c2ccccc2)cc1 | 12% | 31.6% | 61.7% | 29.4% | – | – | – | – | –
COc1ccccc1C(=O)Nc1c[nH]nc1C(=O)NCc1ccc(C(=O)NO)cc1 | 16% | 45.6% | 68.8% | 43.8% | – | – | – | – | –
O=C(NO)c1ccc(CNC(=O)c2n[nH]cc2NC(=O)c2c(F)cccc2Cl)cc1 | – | 27.7% | 59.3% | – | – | – | – | – | –
Nc1ccccc1NC(=O)c1ccc(CNC(=O)c2n[nH]cc2NC(=O)c2ccccc2Cl)cc1 | 5.54% | 17.4% | 84.4% | 63.7% | 10.5 µM | 0.9 µM | 2.11 µM | 6.36 µM | 12.9 µM
Nc1ccccc1NC(=O)Cc1ccc(NC(=O)c2n[nH]cc2NC(=O)c2c(F)cccc2Cl)cc1 | 16.4% | 75.1% | 74.3% | 60.4% | 4.3 µM | 2.57 µM | 2.89 µM | 5.34 µM | 14.4 µM
COc1ccccc1C(=O)Nc1c[nH]nc1C(=O)Nc1ccc(CC(=O)NO)cc1 | 1.58% | 24.2% | 24.5% | 9.38% | – | – | – | – | –
O=C(NO)c1ccc(CNC(=O)c2n[nH]cc2NC(=O)c2c(Cl)cccc2Cl)cc1 | 45.4% | 57.4% | 81.9% | 68.7% | 4.84 µM | 0.5 µM | 5.05 µM | 10.6 µM | 14.6 µM
O=C(Cc1ccc(NC(=O)c2n[nH]cc2NC(=O)c2c(Cl)cccc2Cl)cc1)NO | 10.5% | 75.1% | 75.8% | 62.1% | 7.15 µM | 2.4 µM | 4.61 µM | 6.88 µM | 12.3 µM
Nc1ccccc1NC(=O)Cc1ccc(NC(=O)c2n[nH]cc2NC(=O)c2c(F)cccc2F)cc1 | 3.52% | 73.8% | 81.6% | 76.8% | 8.89 µM | 3.46 µM | 2.97 µM | 4.99 µM | 16.5 µM
Nc1ccccc1NC(=O)c1ccc(CNC(=O)c2n[nH]cc2NC(=O)c2c(F)cccc2Cl)cc1 | 50.1% | 75% | 83.8% | 78.7% | 3.27 µM | 0.7 µM | 1.2 µM | 3.63 µM | 16.3 µM
O=C(CCCCCCNC(=O)c1n[nH]cc1NC(=O)c1c(Cl)cccc1Cl)NO | 17% | 17.9% | 20.1% | 1.07% | – | – | – | – | –
